Source: US20230150974A1 (Foghorn Therapeutics Inc., priority 2020, published 2023)

What was measured:
HiBiT-BRM = target: T1, HiBiT-BRM (Homo sapiens, UniProt P51531); experiment: HiBiT-BRM cell-based degradation assay (Nano-Glo HiBiT Lytic Detection); details: HeLa cells expressing HiBiT-BRM, 24 h; for DC50: read-out: BRM HiBit Degradation IC50
T1 construct: expressed in transfected cells
Summary of the method: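 Luminescence from HiBiT–LgBiT complementation in lysates of a stable HiBiT-BRM HeLa line measured after 24 h compound exposure. Degradation expressed as percent relative to DMSO-treated cells and cells given 2 μM of a known BRM/BRG1 degrader.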

HiBit-BRG1 = target: T2, HiBit-BRG1 (Homo sapiens, UniProt P51532); experiment: HiBit-BRG1 cell-based degradation assay (Nano-Glo HiBiT Lytic Detection); details: HeLa cells expressing HiBit-BRG1 and LgBit, 24 h; for DC50: read-out: BRG1 HiBit Degradation IC50; for Dmax: read-out: BRG1 HiBit Degradation Maximum (%)
T2 construct: expressed in transfected cells
T2 sequence (P51532 whole entry): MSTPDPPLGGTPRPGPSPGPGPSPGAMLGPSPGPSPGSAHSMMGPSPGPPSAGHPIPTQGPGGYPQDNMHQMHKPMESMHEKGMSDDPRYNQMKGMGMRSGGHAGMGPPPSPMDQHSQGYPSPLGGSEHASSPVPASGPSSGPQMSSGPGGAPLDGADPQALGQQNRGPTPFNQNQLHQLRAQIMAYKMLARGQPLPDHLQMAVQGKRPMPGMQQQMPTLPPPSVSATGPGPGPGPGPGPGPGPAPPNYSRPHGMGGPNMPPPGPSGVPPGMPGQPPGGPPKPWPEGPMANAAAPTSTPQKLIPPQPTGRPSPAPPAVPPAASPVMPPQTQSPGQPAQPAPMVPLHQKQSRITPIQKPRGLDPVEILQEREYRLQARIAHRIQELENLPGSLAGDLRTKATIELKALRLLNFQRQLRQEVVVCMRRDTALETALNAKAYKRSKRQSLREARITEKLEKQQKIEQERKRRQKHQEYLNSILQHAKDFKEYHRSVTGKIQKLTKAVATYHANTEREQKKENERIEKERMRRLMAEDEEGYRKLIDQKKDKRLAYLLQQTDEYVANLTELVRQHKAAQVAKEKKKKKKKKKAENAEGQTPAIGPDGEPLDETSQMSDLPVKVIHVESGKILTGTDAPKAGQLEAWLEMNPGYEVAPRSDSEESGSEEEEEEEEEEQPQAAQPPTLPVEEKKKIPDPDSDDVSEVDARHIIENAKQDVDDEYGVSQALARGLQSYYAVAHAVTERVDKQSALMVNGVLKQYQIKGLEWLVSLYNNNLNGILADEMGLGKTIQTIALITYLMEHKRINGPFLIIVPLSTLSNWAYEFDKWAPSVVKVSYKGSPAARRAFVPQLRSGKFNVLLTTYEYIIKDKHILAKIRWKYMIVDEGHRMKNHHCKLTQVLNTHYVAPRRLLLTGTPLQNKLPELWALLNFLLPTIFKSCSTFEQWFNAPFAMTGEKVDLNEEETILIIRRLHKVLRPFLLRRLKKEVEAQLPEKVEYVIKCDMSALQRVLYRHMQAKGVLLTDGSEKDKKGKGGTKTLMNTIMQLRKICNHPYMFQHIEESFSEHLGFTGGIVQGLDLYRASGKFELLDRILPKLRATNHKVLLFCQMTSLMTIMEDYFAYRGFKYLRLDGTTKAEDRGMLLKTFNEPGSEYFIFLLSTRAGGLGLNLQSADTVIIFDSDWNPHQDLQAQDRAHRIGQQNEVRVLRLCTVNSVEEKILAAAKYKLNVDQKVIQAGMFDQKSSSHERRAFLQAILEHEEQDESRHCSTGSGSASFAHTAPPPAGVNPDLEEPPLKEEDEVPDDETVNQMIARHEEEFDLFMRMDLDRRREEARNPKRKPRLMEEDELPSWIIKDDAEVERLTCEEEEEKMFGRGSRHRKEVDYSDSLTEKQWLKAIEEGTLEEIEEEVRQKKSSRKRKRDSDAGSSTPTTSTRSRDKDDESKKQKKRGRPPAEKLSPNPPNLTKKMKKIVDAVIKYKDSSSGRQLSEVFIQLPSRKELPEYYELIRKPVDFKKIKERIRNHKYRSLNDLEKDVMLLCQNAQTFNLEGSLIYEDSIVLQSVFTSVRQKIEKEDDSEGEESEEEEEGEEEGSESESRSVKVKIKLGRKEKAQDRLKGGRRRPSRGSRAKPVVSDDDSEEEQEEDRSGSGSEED
Summary of the method: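 Luminescence from reconstituted NanoBiT luciferase after lytic detection served as read-out of remaining HiBit-BRG1 in stable HeLa cells, which also express LgBit. Cells were seeded at 5000 per well and incubated with compound for 24 h. DMSO and a 2 μM known degrader defined the control range.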

T1 sequence (P51531 whole entry): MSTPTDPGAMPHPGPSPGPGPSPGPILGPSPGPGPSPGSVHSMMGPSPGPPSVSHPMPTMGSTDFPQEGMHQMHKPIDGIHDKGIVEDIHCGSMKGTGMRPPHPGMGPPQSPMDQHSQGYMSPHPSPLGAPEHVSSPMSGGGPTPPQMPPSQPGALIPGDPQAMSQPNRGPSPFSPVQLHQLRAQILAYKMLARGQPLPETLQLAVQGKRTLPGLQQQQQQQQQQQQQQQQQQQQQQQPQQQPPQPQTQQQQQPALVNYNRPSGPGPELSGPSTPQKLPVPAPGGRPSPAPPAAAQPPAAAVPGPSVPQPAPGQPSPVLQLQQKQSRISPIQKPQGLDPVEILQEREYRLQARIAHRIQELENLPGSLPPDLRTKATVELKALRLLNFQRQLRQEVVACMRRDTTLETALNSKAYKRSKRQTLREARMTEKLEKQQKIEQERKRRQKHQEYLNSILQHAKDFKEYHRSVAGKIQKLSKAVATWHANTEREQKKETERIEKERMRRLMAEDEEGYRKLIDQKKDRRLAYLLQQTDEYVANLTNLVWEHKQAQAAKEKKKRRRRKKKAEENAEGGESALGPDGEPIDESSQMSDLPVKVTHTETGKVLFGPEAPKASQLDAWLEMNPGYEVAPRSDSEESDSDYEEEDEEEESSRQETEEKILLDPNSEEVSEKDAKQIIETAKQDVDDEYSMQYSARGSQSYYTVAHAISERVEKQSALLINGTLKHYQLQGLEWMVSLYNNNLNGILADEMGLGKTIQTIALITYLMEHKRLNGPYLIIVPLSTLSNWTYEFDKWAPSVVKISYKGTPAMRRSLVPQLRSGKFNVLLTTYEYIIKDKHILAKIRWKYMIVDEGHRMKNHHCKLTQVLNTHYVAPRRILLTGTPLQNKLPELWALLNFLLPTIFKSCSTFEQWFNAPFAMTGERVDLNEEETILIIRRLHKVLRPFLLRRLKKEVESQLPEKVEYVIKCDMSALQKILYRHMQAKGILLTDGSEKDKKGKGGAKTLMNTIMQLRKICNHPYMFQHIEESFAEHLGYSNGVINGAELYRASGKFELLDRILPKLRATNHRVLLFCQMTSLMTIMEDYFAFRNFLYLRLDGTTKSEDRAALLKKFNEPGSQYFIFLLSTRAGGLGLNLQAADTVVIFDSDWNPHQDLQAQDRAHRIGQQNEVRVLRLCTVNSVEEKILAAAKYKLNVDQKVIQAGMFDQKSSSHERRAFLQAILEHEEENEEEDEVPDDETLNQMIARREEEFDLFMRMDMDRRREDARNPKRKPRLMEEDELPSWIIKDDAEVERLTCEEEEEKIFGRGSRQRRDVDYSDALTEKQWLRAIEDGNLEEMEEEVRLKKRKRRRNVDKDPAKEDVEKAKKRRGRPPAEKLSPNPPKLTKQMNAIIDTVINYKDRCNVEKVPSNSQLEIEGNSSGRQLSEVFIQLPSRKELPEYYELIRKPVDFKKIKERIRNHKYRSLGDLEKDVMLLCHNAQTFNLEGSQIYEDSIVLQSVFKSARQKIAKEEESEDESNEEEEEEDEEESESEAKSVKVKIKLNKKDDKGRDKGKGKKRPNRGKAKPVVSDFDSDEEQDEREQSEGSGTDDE

Row | SMILES | DC50 (HiBiT-BRM) [nM] | DC50 (HiBit-BRG1) [nM] | Dmax (HiBit-BRG1) [%] | BRM HiBit Degradation Maximum (%) (HiBiT-BRM)
1 | Cc1ncsc1-c1ccc(CNC(=O)[C@@H]2C[C@@H](O)CN2C(=O)[C@@H](NC(=O)CCN2CCC(OC3CCN(C(=O)c4ccc(CCOc5cc(-c6ccccc6O)nnc5N)cc4)CC3)CC2)C(C)(C)C)cc1 [Compound 202, (2S,4R)-1-((S)-2-(3-(4-((1-(4-(2-((3-amino-6-(2-hydroxyphenyl)pyridazin-4-yl)oxy)ethyl)benzoyl)piperidin-4-yl)oxy)piperidin-1-yl)propanamido)-3,3-dimethylbutanoyl)-4-hydroxy-N-(4-(4-methylthiazol-5-yl)benzyl)pyrrolidine-2-carboxamide] | > 1000 | > 1000 | < 50 | B (“B” indicates maximum degradation ≥50%)
2 | Cc1ncsc1-c1ccc(CNC(=O)[C@@H]2C[C@@H](O)CN2C(=O)[C@@H](NC(=O)CCN2C[C@@H]3CN(C(=O)c4ccc(CCOc5cc(-c6ccccc6O)nnc5N)cc4)C[C@@H]3C2)C(C)(C)C)cc1 [Compound 203, (2S,4R)-1-((2S)-2-(3-(5-(4-(2-((3-amino-6-(2-hydroxyphenyl)pyridazin-4-yl)oxy)ethyl)benzoyl)hexahydropyrrolo[3,4-c]pyrrol-2(1H)-yl)propanamido)-3,3-dimethylbutanoyl)-4-hydroxy-N-(4-(4-methylthiazol-5-yl)benzyl)pyrrolidine-2-carboxamide] | > 1000 | > 1000 | < 50 | B (“B” indicates maximum degradation ≥50%)
3 | Cc1ncsc1-c1ccc(CNC(=O)[C@@H]2C[C@@H](O)CN2C(=O)[C@@H](NC(=O)CCN2CCC(C3CN(C(=O)c4ccc(CCOc5cc(-c6ccccc6O)nnc5N)cc4)C3)CC2)C(C)(C)C)cc1 [Compound 204, (2S,4R)-1-((S)-2-(3-(4-(1-(4-(2-((3-amino-6-(2-hydroxyphenyl)pyridazin-4-yl)oxy)ethyl)benzoyl)azetidin-3-yl)piperidin-1-yl)propanamido)-3,3-dimethylbutanoyl)-4-hydroxy-N-(4-(4-methylthiazol-5-yl)benzyl)pyrrolidine-2-carboxamide] | > 1000 | > 1000 | < 50 | B (“B” indicates maximum degradation ≥50%)
4 | Cc1ncsc1-c1ccc([C@H](C)NC(=O)[C@@H]2C[C@@H](O)CN2C(=O)[C@@H](c2cc(OCCNCc3ccc(CCOc4cc(-c5ccccc5O)nnc4N)cc3)no2)C(C)C)cc1 [Compound 205, (2S,4R)-1-[(2R)-2-[3-[2-([[4-(2-[[3-amino-6-(2-hydroxyphenyl)pyridazin-4-yl]oxy]ethyl)phenyl]methyl]amino)ethoxy]-1,2-oxazol-5-yl]-3-methylbutanoyl]-4-hydroxy-N-[(1S)-1-[4-(4-methyl-1,3-thiazol-5-yl)phenyl]ethyl]pyrrolidine-2-carboxamide] | < 10 | > 100 | > 75 | A (“A” indicates maximum degradation ≥75%)
5 | Cc1ncsc1-c1ccc([C@H](C)NC(=O)[C@@H]2C[C@@H](O)CN2C(=O)[C@@H](c2cc(OCCN3CCC(O)(C(=O)NCc4ccc(CCOc5cc(-c6ccccc6O)nnc5N)cc4)CC3)no2)C(C)C)cc1 [Compound 206, N-[[4-(2-[[3-amino-6-(2-hydroxyphenyl)pyridazin-4-yl]oxy]ethyl)phenyl]methyl]-4-hydroxy-1-[2-([5-[(2R)-1-[(2S,4R)-4-hydroxy-2-[[(1S)-1-[4-(4-methyl-1,3-thiazol-5-yl)phenyl]ethyl]carbamoyl]pyrrolidin-1-yl]-3-methyl-1-oxobutan-2-yl]-1,2-oxazol-3-yl]oxy)ethyl]piperidine-4-carboxamide] | > 10 | > 100 | > 75 | A (“A” indicates maximum degradation ≥75%)
6 | Cc1ncsc1-c1ccc([C@H](C)NC(=O)[C@@H]2C[C@@H](O)CN2C(=O)[C@@H](c2cc(OCCN3CCC(C4CN(C(=O)c5ccc(CCOc6cc(-c7ccccc7O)nnc6N)cc5)C4)CC3)no2)C(C)C)cc1 [Compound 207, (2S,4R)-1-[(2R)-2-[3-[2-(4-[1-[4-(2-[[3-amino-6-(2-hydroxyphenyl)pyridazin-4-yl]oxy]ethyl)benzoyl]azetidin-3-yl]piperidin-1-yl)ethoxy]-1,2-oxazol-5-yl]-3-methylbutanoyl]-4-hydroxy-N-[(1S)-1-[4-(4-methyl-1,3-thiazol-5-yl)phenyl]ethyl]pyrrolidine-2-carboxamide] | > 10 | > 1000 | < 50 | A (“A” indicates maximum degradation ≥75%)
7 | Cc1ncsc1-c1ccc([C@H](C)NC(=O)[C@@H]2C[C@@H](O)CN2C(=O)[C@@H](c2cc(OCCN3CC4(C3)CN(C(=O)c3ccc(CCOc5cc(-c6ccccc6O)nnc5N)cc3)C4)no2)C(C)C)cc1 [Compound 208, (2S,4R)-1-[(2R)-2-[3-(2-[6-[4-(2-[[3-amino-6-(2-hydroxyphenyl)pyridazin-4-yl]oxy]ethyl)benzoyl]-2,6-diazaspiro[3.3]heptan-2-yl]ethoxy)-1,2-oxazol-5-yl]-3-methylbutanoyl]-4-hydroxy-N-[(1S)-1-[4-(4-methyl-1,3-thiazol-5-yl)phenyl]ethyl]pyrrolidine-2-carboxamide] | > 10 | > 100 | > 75 | A (“A” indicates maximum degradation ≥75%)

Second part, led by results:

Row | DC50 (HiBiT-BRM) [nM] | DC50 (HiBit-BRG1) [nM] | Dmax (HiBit-BRG1) [%] | SMILES | BRM HiBit Degradation Maximum (%) (HiBiT-BRM)
8 | > 10 | > 100 | > 75 | Cc1ncsc1-c1ccc([C@H](C)NC(=O)[C@@H]2C[C@@H](O)CN2C(=O)[C@@H](c2cc(OCCN3CCC4(CC3)CCN(C(=O)c3ccc(CCOc5cc(-c6ccccc6O)nnc5N)cc3)CC4)no2)C(C)C)cc1 [Compound 209, (2S,4R)-1-[(2R)-2-[3-(2-[9-[4-(2-[[3-amino-6-(2-hydroxyphenyl)pyridazin-4-yl]oxy]ethyl)benzoyl]-3,9-diazaspiro[5.5]undecan-3-yl]ethoxy)-1,2-oxazol-5-yl]-3-methylbutanoyl]-4-hydroxy-N-[(1S)-1-[4-(4-methyl-1,3-thiazol-5-yl)phenyl]ethyl]pyrrolidine-2-carboxamide] | A (“A” indicates maximum degradation ≥75%)
9 | < 10 | > 100 | > 50 | Cc1ncsc1-c1ccc([C@H](C)NC(=O)[C@@H]2C[C@@H](O)CN2C(=O)[C@@H](c2cc(OCCN3CCC(OC4CCN(C(=O)c5ccc(CCOc6cc(-c7ccccc7O)nnc6N)cc5)CC4)CC3)no2)C(C)C)cc1 [Compound 210, (2S,4R)-1-((R)-2-(3-(2-(4-((1-(4-(2-((3-amino-6-(2-hydroxyphenyl)pyridazin-4-yl)oxy)ethyl)benzoyl)piperidin-4-yl)oxy)piperidin-1-yl)ethoxy)isoxazol-5-yl)-3-methylbutanoyl)-4-hydroxy-N-((S)-1-(4-(4-methylthiazol-5-yl)phenyl)ethyl)pyrrolidine-2-carboxamide] | A (“A” indicates maximum degradation ≥75%)
10 | > 10 | > 1000 | > 50 | Cc1ncsc1-c1ccc([C@H](C)NC(=O)[C@@H]2C[C@@H](O)CN2C(=O)[C@@H](c2cc(OCCN3CC(C4CCN(C(=O)c5ccc(CCOc6cc(-c7ccccc7O)nnc6N)cc5)CC4)C3)no2)C(C)C)cc1 [Compound 211, (2S,4R)-1-[(2R)-2-[3-[2-(3-[1-[4-(2-[[3-amino-6-(2-hydroxyphenyl)pyridazin-4-yl]oxy]ethyl)benzoyl]piperidin-4-yl]azetidin-1-yl)ethoxy]-1,2-oxazol-5-yl]-3-methylbutanoyl]-4-hydroxy-N-[(1S)-1-[4-(4-methyl-1,3-thiazol-5-yl)phenyl]ethyl]pyrrolidine-2-carboxamide] | A (“A” indicates maximum degradation ≥75%)
11 | > 10 | > 1000 | < 50 | Cc1ncsc1-c1ccc([C@H](C)NC(=O)[C@@H]2C[C@@H](O)CN2C(=O)[C@@H](c2cc(OCCNCCCCCCCCCCC(=O)NCc3ccc(CCOc4cc(-c5ccccc5O)nnc4N)cc3)no2)C(C)C)cc1 [Compound 212, (2S,4R)-1-[(2R)-2-[3-(2-[[10-([[4-(2-[[3-amino-6-(2-hydroxyphenyl)pyridazin-4-yl]oxy]ethyl)phenyl]methyl]carbamoyl)decyl]amino]ethoxy)-1,2-oxazol-5-yl]-3-methylbutanoyl]-4-hydroxy-N-[(1S)-1-[4-(4-methyl-1,3-thiazol-5-yl)phenyl]ethyl]pyrrolidine-2-carboxamide] | A (“A” indicates maximum degradation ≥75%)
12 | > 10 | > 100 | > 75 | Cc1ncsc1-c1ccc([C@H](C)NC(=O)[C@@H]2C[C@@H](O)CN2C(=O)[C@@H](c2cc(OCCN3CC4=C(C3)CN(C(=O)c3ccc(CCOc5cc(-c6ccccc6O)nnc5N)cc3)C4)no2)C(C)C)cc1 [Compound 213, (2S,4R)-1-((R)-2-(3-(2-(5-(4-(2-((3-amino-6-(2-hydroxyphenyl)pyridazin-4-yl)oxy)ethyl)benzoyl)-3,4,5,6-tetrahydropyrrolo[3,4-c]pyrrol-2(1H)-yl)ethoxy)isoxazol-5-yl)-3-methylbutanoyl)-4-hydroxy-N-((S)-1-(4-(4-methylthiazol-5-yl)phenyl)ethyl)pyrrolidine-2-carboxamide] | A (“A” indicates maximum degradation ≥75%)
